From patent US20030119742A1, “Methods and compositions to treat cardiovascular disease using 139, 258, 1261, 1486, 2398, 2414, 7660, 8587,10183, 10550, 12680, 17921, 32248, 60489 or 93804” (Millennium Pharmaceuticals, Inc., priority 2001, published 2003)

B1: CD40L: cytokine used to stimulate endothelial cells or monocyte/macrophages (protein, UniProt P29965 113-261, looked up)
CD40 ligand, soluble form: MQKGDQNPQIAAHVISEASSKTTSVLQWAEKGYYTMSNNLVTLENGKQLTVKRQGLYYIYAQVTFCSNREASSQAPFIASLCLKSPGRFERILLRAANTHSSAKPCGQQSIHLGGVFELQPGASVFVNVTDPSQVSHGTGFTSFGLLKL
B2: IFNgamma: cytokine used to stimulate endothelial cells or monocyte/macrophages (protein, UniProt P01579 24-161, looked up)
Interferon gamma: QDPYVKEAENLKKYFNAGHSDVADNGTLFLGILKNWKEESDRKIMQSQIVSFYFKLFKNFKDDQSIQKSVETIKEDMNVKFFNSNKKKRDDFEKLTNYSVTDLNVQRKAIHELIQVMAELSPAAKTGKRKRSQMLFRG

How the values were obtained:
[1] = system: 1486 mRNA; experiment: TaqMan analysis of 1486 mRNA in livers of treated marmosets; assay type: in vivo, marmoset
Excerpt: (§1) This example describes the TaqMan™ procedure. The Taqman™ procedure is a quantitative, reverse transcription PCR-based approach for detecting mRNA. The RT-PCR reaction exploits the 5′ nuclease activity of AmpliTaq Gold™ DNA Polymerase to cleave a TaqMan™ probe during PCR. Briefly, cDNA was generated from the samples of interest, e.g., heart, kidney, liver, skeletal muscle, and various vessels, and used as the starting material for PCR amplification. In addition to the 5′ and 3′ gene-specific primers, a gene-specific oligonucleotide probe (complementary to the region being amplified) was included in the reaction (i.e., the Taqman™ probe). […]
(§2) During the PCR reaction, cleavage of the probe separates the reporter dye and the quencher dye, resulting in increased fluorescence of the reporter. Accumulation of PCR products is detected directly by monitoring the increase in fluorescence of the reporter dye. When the probe is intact, the proximity of the reporter dye to the quencher dye results in suppression of the reporter fluorescence. […]

[2] = system: 10183 mRNA; experiment: TaqMan analysis of 10183 mRNA in in vivo marmoset models
Excerpt: As assessed by TaqMan analysis, 10183 mRNA is repressed by probucol and cerivastatin/fenofibrate in in vivo marmoset models. Probucol is used clinically for the treatment of atherosclerosis/coronary artery disease. Genes that are regulated by probucol in animal models and/or in vitro models are predicted to be responsible for the therapeutic benefit of this agent and represent new therapeutic targets for the treatment of cardiovascular disease/atherosclerosis/dyslipidemia/lipid disorders. Fibrates are used clinically for the reduction of triglycerides and statins for the reduction of cholesterol, both well-defined risk factor for atherosclerosis/coronary artery disease. Genes that are regulated by this combination treatment in animal models and/or in vitro models are predicted to be responsible for the therapeutic benefit of these agents and represent new therapeutic targets for the treatment of cardiovascular disease/atherosclerosis/dyslipidemia/lipid disorders. […] PPAR alpha agonists are used clinically for the reduction of triglycerides and statins for the reduction of cholesterol, both well-defined risk factor for atherosclerosis/coronary artery disease. […]

[3] = system: 10550 mRNA; experiment: TaqMan analysis of 10550 mRNA in in vivo marmoset models
Excerpt: as §1, §2

[4] = system: 12680 mRNA; experiment: TaqMan analysis of 12680 mRNA in in vivo marmoset models
Excerpt: as §1, §2

[5] = system: 1261 mRNA; experiment: TaqMan analysis of 1261 mRNA in human microvascular endothelial cells (HMVEC) from the heart; assay type: cell-based; details: HMVEC from the heart treated with the factor
[6] = system: 2414 mRNA; experiment: TaqMan analysis of 2414 mRNA during cytokine stimulation of endothelial cells and monocyte/macrophages; assay type: cell-based; details: cytokine stimulation of either endothelial cells or monocyte/macrophages
Excerpt: CD40L, TNFalpha, IL-1, and IFNgamma were used to stimulate either endothelial cells or monocyte/macrophages. These cytokines initiate/sustain the atherosclerotic pathogenesis
This example describes the TaqMan™ procedure.

[7] = system: 2398; details: endothelial cells
Excerpt: as §1, §2

[8] = system: 32248 mRNA; experiment: TaqMan analysis of 32248 mRNA in monkey liver model; assay type: in vivo
Excerpt: As assessed by TaqMan analysis, 32248 mRNA was repressed by n-3 polyunsaturated fatty acid in monkey liver model. […] Genes that are regulated by polyunsaturated fatty acids in animal models and/or in vitro models are predicted to be responsible for the therapeutic benefit of this agent and represent new therapeutic targets for the treatment of cardiovascular disease/atherosclerosis/dyslipidemia/lipid disorders. […] Cholestyramine is used clinically for the reduction of cholesterol, a defined risk factor for atherosclerosis/coronary artery disease. Genes that are regulated by cholestyramine in animal models and/or in vitro models are predicted to be responsible for the therapeutic benefit of this agent and represent new therapeutic targets for the treatment of cardiovascular disease/atherosclerosis/dyslipidemia/lipid disorders. Fibrates are used clinically for the reduction of triglycerides and statins for the reduction of cholesterol, both well-defined risk factor for atherosclerosis/coronary artery disease. Genes that are regulated by this combination treatment in animal models and/or in vitro models are predicted to be responsible for the therapeutic benefit of these agents and represent new therapeutic targets for the treatment of cardiovascular disease/atherosclerosis/dyslipidemia/lipid disorders. 32248 was highly expressed in human liver. […]

Molecule	expression of human 1261 mRNA [5]	expression of 2414 mRNA [6]	further results
CC(C)(Sc1cc(C(C)(C)C)c(O)c(C(C)(C)C)c1)Sc1cc(C(C)(C)C)c(O)c(C(C)(C)C)c1 [probucol]	–	–	1486 mRNA [1]: repressed; 10183 mRNA [2]: repressed; 10550 mRNA [3]: repressed; 12680 mRNA [4]: repressed
IL-1beta: pro-angiogenic factor interleukin 1 beta	upregulated	–	–
TNF-alpha	upregulated	up-regulated	–
VEGF	upregulated	–	2398 expression [7]: upregulated
n-3 polyunsaturated fatty acid	–	–	32248 mRNA [8]: repressed
B1	–	up-regulated	–
B2	–	up-regulated	–
